pIC50: −log10 of the molar value. Where two headings read alike, the source gives them in different places.
Key:
[1] = test system: SJSA-1; assay: Cell proliferation (Alamar Blue) assay, SJSA-1 osteosarcoma, with/without ferrostatin; type: cell-based, human; details: Homo sapiens; for IC50: SJSA-1, 24 h, Alamar Blue, 24 h; for pIC50: SJSA-1, Cell Line SJSA-1, read-out: IC50
Outline: (§1)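 Cells seeded at 5000/well, 16-24 h, then exposed 24 h at 37° C to compound, 10-0.0005 μM in 3-fold dilutions, 1% DMSO final. Alamar Blue fluorescence (ex 540/em 590 nm) read after 1.5 h; IC50 from variable-slope sigmoidal fit.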

[2] = test system: A431; assay: Cell proliferation (Alamar Blue) assay, A431; type: cell-based; details: Homo sapiens, A-431; Cell Line A431
Protocol: Cells (SJSA-1, 786-O and A431) were seeded (5000 cells/100 μL/well) in 96-well tissue culture plate and incubated at 37° C./5% CO2 for 16-24 hours. The cells were then treated with compounds (25 μL of 5×). The compound concentrations were 10-0.0005 μM prepared in 3-fold serial dilutions with final DMSO concentration of 1%. The plates were then incubated for 24 h at 37° C./5% CO2 in a moist environment. Then Alamar Blue™ reagent (final concentration 1×-12.5 μL) was added to each well and incubated for 1.5 hours at 37° C./5% CO2. The plates were read on fluorescence reader at 540 nm excitation and 590 nm emission wavelengths. The IC50 values were subsequently determined using a sigmoidal dose-response curve (variable slope) in GraphPad Prism® 5 software.
The cell proliferation assays for the compounds shown Table 25 was performed according to the protocols described herein, including Examples 4 and 6.

[3] = test system: 786-O; assay: Cell proliferation (Alamar Blue) assay, 786-O renal cell carcinoma, with/without ferrostatin; type: cell-based; details: Homo sapiens; for IC50: 786-0, 24 h, Alamar Blue, 24 h; for pIC50: 786-0, Cell Line 786-O, read-out: IC50
Outline: as §1

[4] = test system: A549; assay: Cell viability assay, A549 cells; type: cell-based; details: Homo sapiens, A549, Cell Line A549; read-out: IC50
Outline: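 Growth of A549 cells was assessed with a cell viability assay. Cells were plated at 1,000-10,000 cells/well in 96-well plates and incubated overnight at 37° C. Nine-point 3-fold DMSO dilutions, starting from 30 μM and run in duplicate, were diluted into media (final DMSO 0.25% or less). After 96 hours, CellTiter Glo luminescence was read, inhibition was calculated against DMSO controls, and IC50 was fitted in XL-fit.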

[5] = 2 μM ferrostatin, read-out: SJSA-1 (IC50, μM) 2 μM Ferrostatin
[6] = without ferrostatin, read-out: SJSA-1 (IC50, μM) Without Ferrostatin
[7] = 2 μM ferrostatin, read-out: 786-O (IC50, μM) 2 μM Ferrostatin
[8] = without ferrostatin, read-out: 786-O (IC50, μM) Without Ferrostatin

Row | SMILES | IC50 [1, 5] [µM] | IC50 [1, 6] [µM] | pIC50 [1] | pIC50 [2] | IC50 [3, 7] [µM] | IC50 [3, 8] [µM] | pIC50 [3] | pIC50 [4]
1 | C#CC(=O)N1[C@@H](c2ccc(F)cc2)c2[nH]c3ccccc3c2C[C@@H]1C(=O)OC [Compound 146, methyl (1S,3R)-1-(4-fluorophenyl)-2-propioloyl-2,3,4,9-tetrahydro-1H-pyrido[3,4-b]indole-3-carboxylate] | – | – | 7.52 | 5.62 | – | – | 7.64 | –
2 | Cc1cc(N2CCOCC2)ccc1[C@@H]1c2[nH]c3ccccc3c2C[C@H](C)N1C(=O)CCl [Compound 128, 2-chloro-1-((1R,3S)-3-methyl-1-(2-methyl-4-morpholinophenyl)-1,3,4,9-tetrahydro-2H-pyrido[3,4-b]indol-2-yl)ethan-1-one] | – | – | 6.74 | < 5.00 | – | – | 6.73 | –
3 | C#CC(=O)N1[C@@H](COC)Cc2c([nH]c3ccccc23)[C@@H]1c1ccc(S(=O)(=O)NC2CC2)cc1F [Compound 144] | – | – | 7.60 | 5.46 | – | – | 8.15 | –
4 | C[C@H]1Cc2c([nH]c3ccccc23)[C@@H](c2ccc(N3CCOCC3)cc2F)N1C(=O)CCl [Compound 129] | – | – | 5.36 | 5.36 | – | – | 5.38 | –
5 | C#CC(=O)N1[C@@H](CCCC)Cc2c([nH]c3ccc(F)cc23)[C@@H]1c1ccc(S(=O)(=O)NC2CCC2)cc1 [Compound 143, 4-((1S,3S)-3-butyl-6-fluoro-2-propioloyl-2,3,4,9-tetrahydro-1H-pyrido[3,4-b]indol-1-yl)-N-cyclobutylbenzenesulfonamide] | – | – | 8.05 | 5.57 | – | – | 8.05 | –
6 | C[C@H]1Cc2c([nH]c3ccccc23)[C@H](c2ccc(CN3CCOCC3)cc2)N1C(=O)CCl [Compound 132] | – | – | 5.17 | 5.22 | – | – | 5.42 | –
7 | CCCC[C@H]1Cc2c([nH]c3ccc(F)cc23)[C@H](c2ccc(S(=O)(=O)NC3CCC3)cc2)N1C(=O)CCl [Compound 145, 4-((1S,3S)-3-butyl-2-(2-chloroacetyl)-6-fluoro-2,3,4,9-tetrahydro-1H-pyrido[3,4-b]indol-1-yl)-N-cyclobutylbenzenesulfonamide] | – | – | 8.40 | 5.34 | – | – | 8.52 | –
8 | C#CC(=O)N1[C@@H](c2ccc(S(=O)(=O)NC3CC3)cc2F)c2[nH]c3ccc(Cl)cc3c2C[C@@H]1C [Compound 151] | – | – | 7.43 | 5.28 | – | – | 7.74 | –
9 | C[C@H]1Cc2c([nH]c3ccc(F)cc23)[C@H](c2ccc(S(=O)(=O)NC3CC3)cc2F)N1C(=O)CCl (stereo in doubt) [Compound 164, 4-((1S,3S)-2-(2-chloroacetyl)-6-fluoro-3-methyl-2,3,4,9-tetrahydro-1H-pyrido[3,4-b]indol-1-yl)-N-cyclopropyl-3-fluorobenzenesulfonamide] | 7.06 | 0.013 | 7.89 | 5.00 | 6.34 | 0.023 | 7.64 | –
10 | C#CCOc1ccc([C@H]2c3[nH]c4ccccc4c3C[C@H](C(=O)OC)N2C(=O)CCl)cc1 [Compound 147, methyl (1S,3R)-2-(2-chloroacetyl)-1-(4-(prop-2-yn-1-yloxy)phenyl)-2,3,4,9-tetrahydro-1H-pyrido[3,4-b]indole-3-carboxylate] | – | – | 6.80 | < 5.00 | – | – | 7.31 | –
11 | C[C@H]1Cc2c([nH]c3ccccc23)C(c2ccc(-n3ccnc3)cc2)N1C(=O)CCl (stereo partly drawn) [Compound 163, 1-((3S)-1-(4-(1H-imidazol-1-yl)phenyl)-3-methyl-1,3,4,9-tetrahydro-2H-pyrido[3,4-b]indol-2-yl)-2-chloroethan-1-one] | – | – | < 5.00 | < 5.00 | – | – | 5.19 | –

Second part, the compound after the results:

Row | IC50 [1, 5] [µM] | IC50 [1, 6] [µM] | pIC50 [1] | pIC50 [2] | IC50 [3, 7] [µM] | IC50 [3, 8] [µM] | pIC50 [3] | pIC50 [4] | SMILES
12 | 9.55 | 0.081 | 7.09 | 5.81 | > 10 | 0.062 | 7.21 | – | C[C@H]1Cc2c([nH]c3ccccc23)[C@H](c2ccc(N3CCS(=O)(=O)CC3)cc2)N1C(=O)CCl [Compound 210, 2-chloro-1-((1S,3S)-1-(4-(1,1-dioxidothiomorpholino)phenyl)-3-methyl-1,3,4,9-tetrahydro-2H-pyrido[3,4-b]indol-2-yl)ethan-1-one]
13 | 4.1 | 0.023 | 7.64 | 5.68 | 6.76 | 0.023 | 7.64 | – | C[C@H]1Cc2c([nH]c3ccc(Cl)cc23)[C@H](c2ccc(S(=O)(=O)NC3CC3)cc2F)N1C(=O)CCl [Compound 172, 4-((1S,3S)-6-chloro-2-(2-chloroacetyl)-3-methyl-2,3,4,9-tetrahydro-1H-pyrido[3,4-b]indol-1-yl)-N-cyclopropyl-3-fluorobenzenesulfonamide]
14 | – | – | 7.35 | < 5.00 | – | – | 7.60 | – | COC[C@H]1Cc2c([nH]c3ccccc23)[C@H](c2ccc(N3CCOCC3)cc2)N1C(=O)CCl [Compound 232]
15 | > 10 | 0.56 | 6.25 | 5.29 | 3.31 | 0.487 | 6.31 | – | C[C@H]1Cc2c([nH]c3ccccc23)[C@H](c2ccc3c(c2)CNC3=O)N1C(=O)CCl [Compound 168, 5-((1S,3S)-2-(2-chloroacetyl)-3-methyl-2,3,4,9-tetrahydro-1H-pyrido[3,4-b]indol-1-yl)isoindolin-1-one]
16 | – | – | 7.44 | 5.72 | – | – | 7.29 | – | C[C@H]1Cc2c([nH]c3ccccc23)[C@H](c2ccc(C(=O)Nc3ccccn3)cc2)N1C(=O)CCl (single isomer, unassigned) [Compound 219]
17 | > 10 | 0.01 | 8.00 | < 5.00 | 9.52 | 0.008 | 8.10 | – | COC[C@H]1Cc2c([nH]c3ccccc23)[C@H](c2ccc(C(=O)NC3CC3)cc2F)N1C(=O)CCl [Compound 166, 4-((1S,3R)-2-(2-chloroacetyl)-3-(methoxymethyl)-2,3,4,9-tetrahydro-1H-pyrido[3,4-b]indol-1-yl)-N-cyclopropyl-3-fluorobenzamide]
18 | 3.98 | 0.034 | 7.47 | 5.44 | 3.95 | 0.023 | 7.64 | – | COc1ccc2[nH]c3c(c2c1)C[C@H](C)N(C(=O)CCl)[C@H]3c1ccc(S(=O)(=O)NC2CC2)cc1F [Compound 173, 4-((3S)-2-(2-chloroacetyl)-6-methoxy-3-methyl-2,3,4,9-tetrahydro-1H-pyrido[3,4-b]indol-1-yl)-N-cyclopropyl-3-fluorobenzenesulfonamide]
19 | 9.11 | 0.062 | 7.21 | 5.38 | 8.09 | 0.058 | 7.24 | – | C[C@H]1Cc2c([nH]c3ccccc23)[C@H](c2ccc(S(=O)(=O)N(C)C3CC3)cc2F)N1C(=O)CCl [Compound 170]
20 | 4.01 | 0.011 | 7.96 | 5.71 | 2 | 0.005 | 8.30 | – | C#CC(=O)N1[C@@H](CCCC)Cc2c([nH]c3ccccc23)[C@@H]1c1ccc(S(=O)(=O)NC2CC2)cc1F [Compound 167, 4-((1S,3S)-3-butyl-2-propioloyl-2,3,4,9-tetrahydro-1H-pyrido[3,4-b]indol-1-yl)-N-cyclopropyl-3-fluorobenzenesulfonamide]
21 | – | – | 5.41 | 5.10 | – | – | 5.38 | 5.49 | Cc1cc(N2CCOCC2)ccc1[C@H]1c2[nH]c3ccccc3c2C[C@H](C)N1C(=O)CCl [Compound 234, 2-chloro-1-((1S,3S)-3-methyl-1-(2-methyl-4-morpholinophenyl)-1,3,4,9-tetrahydro-2H-pyrido[3,4-b]indol-2-yl)ethan-1-one]
22 | – | – | 7.35 | 5.32 | – | – | 7.47 | 5.70 | C[C@H]1Cc2c([nH]c3ccccc23)[C@H](c2ccc(N3CCOCC3)cc2F)N1C(=O)CCl [Compound 233]
23 | 4.79 | 0.066 | 7.18 | 5.73 | 5.62 | 0.066 | 7.18 | – | C[C@H]1Cc2c([nH]c3ccccc23)[C@H](c2ccc(N3CC4(COC4)C3)cc2)N1C(=O)CCl [Compound 213, 1-((1S,3S)-1-(4-(2-oxa-6-azaspiro[3.3]heptan-6-yl)phenyl)-3-methyl-1,3,4,9-tetrahydro-2H-pyrido[3,4-b]indol-2-yl)-2-chloroethan-1-one]
